Source: PubChem BioAssay (NCI)
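Method: 48-hour compound exposure of cells in 96-well plates, five concentrations, linear interpolation of endpoints. TGI denotes the concentration required for complete inhibition of growth.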

Experiments:
Assay in all cases: inhibition of tumour cell growth, NCI panel, 48 h
[1] = tested on: 786-0 renal
[2] = tested on: A498 renal
[3] = tested on: A549 NSCLC
[4] = tested on: CAKI-1 renal
[5] = tested on: CCRF-CEM leukemia
[6] = tested on: DLD-1 colon
[7] = tested on: DMS 273 small cell lung
[8] = tested on: EKVX NSCLC
[9] = tested on: HCT-116 colon
[10] = tested on: HL-60(TB) leukemia
[11] = tested on: HOP-92 NSCLC
[12] = tested on: HT29 colon
[13] = tested on: IGROV1 ovarian
[14] = tested on: K-562 leukemia
[15] = tested on: KM12 colon
[16] = tested on: M14 melanoma
[17] = tested on: M19-MEL melanoma
[18] = tested on: MALME-3M melanoma
[19] = tested on: MOLT-4 leukemia
[20] = tested on: NCI-H226 lung
[21] = tested on: NCI-H23 lung
[22] = tested on: NCI-H460 lung
[23] = tested on: OVCAR-3 ovarian
[24] = tested on: OVCAR-4 ovarian
[25] = tested on: OVCAR-5 ovarian
[26] = tested on: OVCAR-8 ovarian
[27] = tested on: RXF 393 renal
[28] = tested on: RXF-631 renal
[29] = tested on: SF-268 CNS
[30] = tested on: SF-295 CNS
[31] = tested on: SF-539 CNS
[32] = tested on: SK-MEL-2 melanoma
[33] = tested on: SK-MEL-28 melanoma
[34] = tested on: SK-MEL-5 melanoma
[35] = tested on: SK-OV-3 ovarian
[36] = tested on: SN12C renal
[37] = tested on: SNB-19 CNS
[38] = tested on: SNB-75 CNS
[39] = tested on: SNB-78 CNS
[40] = tested on: SR leukemia
[41] = tested on: SW-620 colon
[42] = tested on: TK-10 renal
[43] = tested on: U251 CNS
[44] = tested on: UACC-257 melanoma
[45] = tested on: UACC-62 melanoma
[46] = tested on: UO-31 renal
[47] = tested on: XF 498 CNS
[48] = tested on: ACHN renal
[49] = tested on: COLO 205 colon
[50] = tested on: DMS 114 small cell lung
[51] = tested on: HCT-15 colon
[52] = tested on: HOP-18 NSCLC
[53] = tested on: HOP-62 NSCLC
[54] = tested on: KM20L2 colon
[55] = tested on: LOX IMVI melanoma
[56] = tested on: LXFL 529 NSCLC
[57] = tested on: NCI-H522 lung
[58] = tested on: RPMI-8226 leukemia
[59] = tested on: HCC-2998 colon

O=C(NC1CCC[C@H]1OC(=O)c1ccccc1)c1ccccc1 (stereo not given in full)
TGI [1]: > 100 µM
TGI [2]: > 100 µM
TGI [3]: > 100 µM
TGI [4]: > 100 µM
TGI [5]: > 100 µM
TGI [6]: > 100 µM
TGI [7]: > 100 µM
TGI [8]: > 100 µM
TGI [9]: > 100 µM
TGI [10]: > 100 µM
TGI [11]: > 100 µM
TGI [12]: > 100 µM
TGI [13]: > 100 µM
TGI [14]: > 100 µM
TGI [15]: > 100 µM
TGI [16]: > 100 µM
TGI [17]: > 100 µM
TGI [18]: > 100 µM
TGI [19]: > 100 µM
TGI [20]: 96.1 µM
TGI [21]: > 100 µM
TGI [22]: > 100 µM
TGI [23]: > 100 µM
TGI [24]: > 100 µM
TGI [25]: > 100 µM
TGI [26]: > 100 µM
TGI [27]: > 100 µM
TGI [28]: > 100 µM
TGI [29]: > 100 µM
TGI [30]: > 100 µM
TGI [31]: > 100 µM
TGI [32]: > 100 µM
TGI [33]: > 100 µM
TGI [34]: > 100 µM
TGI [35]: > 100 µM
TGI [36]: > 100 µM
TGI [37]: > 100 µM
TGI [38]: 98.9 µM
TGI [39]: > 100 µM
TGI [40]: > 100 µM
TGI [41]: > 100 µM
TGI [42]: > 100 µM
TGI [43]: > 100 µM
TGI [44]: > 100 µM
TGI [45]: > 100 µM
TGI [46]: > 100 µM
TGI [47]: > 100 µM

CC(C)N1CC2CC(CN(C(=O)c3ccc(Cl)cc3)C2)C1
TGI [1]: > 100 µM
TGI [2]: > 100 µM
TGI [3]: > 100 µM
TGI [48]: > 100 µM
TGI [4]: > 100 µM
TGI [5]: > 100 µM
TGI [49]: > 100 µM
TGI [50]: > 100 µM
TGI [7]: > 100 µM
TGI [8]: > 100 µM
TGI [51]: > 100 µM
TGI [10]: > 100 µM
TGI [52]: > 100 µM
TGI [53]: > 100 µM
TGI [11]: > 100 µM
TGI [12]: > 100 µM
TGI [13]: > 100 µM
TGI [14]: > 100 µM
TGI [15]: > 100 µM
TGI [54]: > 100 µM
TGI [55]: > 100 µM
TGI [56]: > 100 µM
TGI [16]: > 100 µM
TGI [17]: > 100 µM
TGI [18]: > 100 µM
TGI [19]: > 100 µM
TGI [20]: > 100 µM
TGI [21]: > 100 µM
TGI [22]: > 100 µM
TGI [57]: > 100 µM
TGI [23]: > 100 µM
TGI [24]: > 100 µM
TGI [25]: > 100 µM
TGI [26]: > 100 µM
TGI [58]: > 100 µM
TGI [27]: > 100 µM
TGI [28]: > 100 µM
TGI [29]: > 100 µM
TGI [30]: > 100 µM
TGI [31]: > 100 µM
TGI [32]: > 100 µM
TGI [33]: > 100 µM
TGI [34]: > 100 µM
TGI [35]: > 100 µM
TGI [36]: > 100 µM
TGI [37]: > 100 µM
TGI [38]: > 100 µM
TGI [41]: > 100 µM
TGI [42]: > 100 µM
TGI [43]: > 100 µM
TGI [44]: > 100 µM
TGI [45]: > 100 µM
TGI [46]: > 100 µM
TGI [47]: > 100 µM

CCCCCCCCCCCCCCNCC(OC)OC
TGI [1]: 31 µM
TGI [2]: 35 µM
TGI [3]: 35.3 µM
TGI [48]: 31.1 µM
TGI [5]: 36.4 µM
TGI [49]: 28.3 µM
TGI [6]: 28.6 µM
TGI [50]: 29.3 µM
TGI [7]: 33 µM
TGI [8]: 34.2 µM
TGI [59]: 33.4 µM
TGI [9]: 26 µM
TGI [51]: 25.7 µM
TGI [10]: 23 µM
TGI [52]: 26.4 µM
TGI [53]: 31.8 µM
TGI [11]: 23.9 µM
TGI [12]: 14.3 µM
TGI [13]: 32.3 µM
TGI [15]: 26.7 µM
TGI [54]: 28.8 µM
TGI [55]: 33.5 µM
TGI [56]: 30 µM
TGI [16]: 27.4 µM
TGI [17]: 32.3 µM
TGI [18]: 35.3 µM
TGI [20]: 34.4 µM
TGI [21]: 36.8 µM
TGI [22]: 34.1 µM
TGI [57]: 34.2 µM
TGI [23]: 32.6 µM
TGI [24]: 30.1 µM
TGI [25]: 27.8 µM
TGI [26]: 44.3 µM
TGI [27]: 28.9 µM
TGI [28]: 31.2 µM
TGI [29]: 39.4 µM
TGI [30]: 34.1 µM
TGI [31]: 30.9 µM
TGI [32]: 30.9 µM
TGI [33]: 30.4 µM
TGI [34]: 29.3 µM
TGI [35]: 33.1 µM
TGI [36]: 30.9 µM
TGI [37]: 33.8 µM
TGI [38]: 26.9 µM
TGI [39]: 34.3 µM
TGI [41]: 33.2 µM
TGI [42]: 32.9 µM
TGI [43]: 31.6 µM
TGI [44]: 37.5 µM
TGI [45]: 34.4 µM
TGI [46]: 25.7 µM
TGI [47]: 31.7 µM
